Source: publication PMC8750417, “Intracellular Amplifiers of Reactive Oxygen Species Affecting Mitochondria as Radiosensitizers” (Cancers, 2021)

System: human ovarian carcinoma, Burkitt’s lymphoma, pancreatic carcinoma and T-cell leukemia cells
Experiment: Anticancer activity, summary over four cancer cell lines
Assay type: cell-based
Conditions: read-out: IC50 values, range over cell lines
Protocol: Determination of viability of cells in the presence of prodrugs and controls A2780 and BL-2 cells The medium was removed, and the cells were washed two times with DPBS, trypsinated, and resuspended in RPMI 1640 medium (A2780) supplemented with 5% FBS (for 24 h and 48 h assay) or 10% FBS (for 96 h assay) , 1% L-glutamine, and 1% penicillin/streptomycin.
A2780 cells: This suspension was spread in the wells of a 96 -well microtiter plate (25000 cells for A2780 per well per 100 μL) and left standing at 37 °C in the chamber filled with CO2 (5%) for overnight. […] Afterward, the intensity of the absorbance at 590 nm was measured.
MTT is converted in live cells to blue dye with the absorbance maximum λ max at 590 nm.
The absorbance at 690 nm was taken as a baseline value. The baseline corrected absorbance at 590 nm (A(590 nm) − A(690 nm)) was applied to calculate the relative number of viable cells. […]
AsPC1 cells The cells (20.000/well) were seeded in a 12-well plate and incubated for 24 h. […] Viable cells were determined based on the morphological parameters by using flow cytometry (Table S4). […]
Jurkat cells The cells were counted in MUSE Cell Analyzer using MUSE® Count &Viability Assay Kit (Merck-Millipore, Billerica, MA, USA) and adjusted to a density of 1.0 x 10^5/ml in RPMI 1640 medium (with 10% FCS and 1% glutamine). […]

Work on `CC1(C)OB(c2ccc(COC(=O)N(Cc3cn(Cc4ccc(Cn5cc(Cc6ccccc6)nn5)cc4)nn3)[c-]3cccc3)cc2)OC1(C)C.[Fe+2].c1cc[cH-]c1` [2c] yielded an IC50 of 5 to 7.1 µM.
